Common to all, as to type: physicochemical
The target in series [1] is T1, FUS-SNAP condensates (Homo sapiens, UniProt P35637).
T1 sequence (P35637 1-526): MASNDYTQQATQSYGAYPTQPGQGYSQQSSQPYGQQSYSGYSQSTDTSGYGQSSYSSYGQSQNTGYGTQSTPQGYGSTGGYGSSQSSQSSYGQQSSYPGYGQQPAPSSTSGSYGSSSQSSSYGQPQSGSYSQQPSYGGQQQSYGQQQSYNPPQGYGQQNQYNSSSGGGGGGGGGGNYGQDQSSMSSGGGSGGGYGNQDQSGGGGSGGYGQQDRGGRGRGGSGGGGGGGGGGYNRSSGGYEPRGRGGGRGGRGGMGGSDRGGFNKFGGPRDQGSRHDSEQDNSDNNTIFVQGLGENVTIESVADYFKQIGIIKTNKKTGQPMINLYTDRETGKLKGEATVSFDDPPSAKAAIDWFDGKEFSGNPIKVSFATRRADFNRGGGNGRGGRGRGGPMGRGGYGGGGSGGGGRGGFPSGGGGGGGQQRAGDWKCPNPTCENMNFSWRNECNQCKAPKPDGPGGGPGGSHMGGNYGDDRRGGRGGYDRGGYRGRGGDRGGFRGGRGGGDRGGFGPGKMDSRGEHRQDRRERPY
Description: Fluorescence-based assay of compound partitioning compared with the MS assay (Example 4). Particulars: condensate volume fraction of 1/1000 used. As to the method:
The partition characteristics of the test compounds were also determined using the fluorescence-based assay method disclosed in Example 2.
Rhodamine 101 (Rho 101), Rhodamine 800 ([…]), Rhodamine B (Rho B), Rhodamine 123 (Rho 123), and fluorescein were assessed using both the fluorescence-based assay and the mass spectrometry-based assay, as discussed above. […] Using the measurements, a ratio of compound concentration associated with the condensate compared to compound concentration not associated with the condensate was calculated for each compound. A condensate volume fraction of 1/1000 in relation to the outside phase was used.

The target in series [2] is T1, FUS-SNAP condensates. Put plainly: Fluorescence imaging of dye partitioning in FUS-SNAP condensates (I-in, I-out). Particulars: for Ratio of intensity inside:outside FUS-SNAP Condensates Day 1 / Ratio of intensity inside:outside FUS-SNAP Condensates Day 2 / Ratio of intensity inside:outside FUS-SNAP Condensates Average: I-in:I-out; for Ratio of intensity inside:outside FUS-SNAP Condensates Day 1 / Ratio of intensity inside:outside FUS-SNAP Condensates Day 2 / Ratio of intensity inside:outside FUS-SNAP Condensates Average / Intensity Inside with Dye Average / Intensity Inside with Dye 1 / Intensity Inside with Dye 2 / Intensity Inside with Dye 3 / Intensity Outside with Dye Average / Intensity Outside with Dye 1 / Intensity Outside with Dye 2 / Intensity Outside with Dye 3: 10 μM dye; for Ratio of intensity inside:outside FUS-SNAP Condensates Average: average of two days; for Intensity Inside with Dye Average / Intensity Inside with Dye 1 / Intensity Inside with Dye 2 / Intensity Inside with Dye 3 / Intensity Inside Dye-No Dye: inside FUS-SNAP condensate; for Intensity Inside with Dye Average / Intensity Inside with Dye 1 / Intensity Inside with Dye 2 / Intensity Inside with Dye 3 / Intensity Outside with Dye Average / Intensity Outside with Dye 1 / Intensity Outside with Dye 2 / Intensity Outside with Dye 3: 5 μM protein; for Intensity Inside with Dye Average / Intensity Outside with Dye Average: average of three images; for Intensity Inside with Dye Average / Intensity Inside with Dye 1 / Intensity Inside with Dye 2 / Intensity Inside with Dye 3 / Intensity Inside Dye-No Dye / Intensity Outside with Dye Average / Intensity Outside with Dye 1 / Intensity Outside with Dye 2 / Intensity Outside with Dye 3 / Intensity Outside (Dye-No Dye): one day of experiments; for Intensity Inside with Dye 1 / Intensity Outside with Dye 1: image 1; for Intensity Inside with Dye 2 / Intensity Outside with Dye 2: image 2; for Intensity Inside with Dye 3 / Intensity Outside with Dye 3: image 3; for Intensity Inside Dye-No Dye / Intensity Outside (Dye-No Dye): background corrected; for Intensity Outside with Dye Average / Intensity Outside with Dye 1 / Intensity Outside with Dye 2 / Intensity Outside with Dye 3 / Intensity Outside (Dye-No Dye): outside FUS-SNAP condensate. The gist of the method:
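Partitioning read by spinning-disk confocal imaging (60× oil, dye-specific exposure 1-1000 ms) of condensates formed from 5 μM protein (FUS-SNAP or untagged PGL-3) plus 10 μM dye, 75 mM KCl, 1% DMSO, pH 7.25. Background-subtracted intensities inside and beside one condensate per image, three images averaged.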

Series [3] relates to FUS-SNAP condensates versus PGL-3 condensates. Description: Condensate preference: ratio of FUS-SNAP I-in:I-out to PGL-3 I-in:I-out. Particulars: average FUS-SNAP I-in:I-out divided by average PGL-3 I-in:I-out. The method in brief:
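For each condensate type, mean intensity inside the target condensates is divided by the intensity outside (I-in:I-out). The ratios from two experiment days are averaged. Preference is expressed as the FUS-SNAP ratio relative to the PGL-3 ratio.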

The target of another series is T2, FUS-GFP condensates (Homo sapiens, UniProt P35637).
T2 sequence (P35637 1-526): T1 sequence (P35637 1-526)
Description: Co-localization of dye and FUS in FUS-GFP condensates (confocal imaging). Particulars: FIG. 6; FUS-GFP channel and Rhodamine 800 channel. As to the method:
FUS-GFP condensates were prepared as described for FUS-SNAP in Example 2 using Dye 18.
A spinning disk confocal microscope was used to acquire images of the samples. A 60×oil high-NA objective lens was used to capture the condensate droplets. The laser power was set to 20% and the exposure times were adjusted to the fluorescence emission intensity specific for each dye. Exposure times ranged from 1-1000 ms. Appropriate filter settings were used, matching the excitation and emission spectra of the dye and GFP. Control images were taken of condensates containing FUS-GFP with no dye.

Structures are written as SMILES. Where a name gives a salt, the structure may show the parent alone.

As to `N#CC1=c2cc3c4c(c2Oc2c1cc1c5c2CCCN5CCC1)CCC[N+]=4CCC3` [Dye 18, Rhodamine 800], the “Ratio of compound concentration in versus compound concentration out, Fluorescence-based assay” value (shortened to “Ratio of compound concentration”) at FUS-SNAP condensates [1] is reported as 1,000. Also, on FUS-SNAP condensates [2], the “Ratio of intensity inside:outside FUS-SNAP Condensates Day 1” value came to 7.6, the “Ratio of intensity inside:outside FUS-SNAP Condensates Day 2” value turned out to be 11.0, the “Ratio of intensity inside:outside FUS-SNAP Condensates Average” value was 9.3 and the “Intensity Inside with Dye Average” value amounted to 15051.4. Further, on FUS-SNAP condensates [2], the “Intensity Inside with Dye 1” value amounted to 15394.5, the “Intensity Inside with Dye 2” value is on record as 13908.5, the “Intensity Inside with Dye 3” value came out at 15851.1 and the “Intensity Inside Dye-No Dye” value was 14919.5. On FUS-SNAP condensates [2], the “Intensity Outside with Dye Average” value stood at 2092.2, the “Intensity Outside with Dye 1” value was determined as 2064.2, the “Intensity Outside with Dye 2” value is 1988.2 and the “Intensity Outside with Dye 3” value came to 2224.3. Also, the “Intensity Outside (Dye-No Dye)” value on FUS-SNAP condensates [2] amounted to 1959.9. In addition, the “Ratio of FUS-SNAP:PGL-3” value in series [3] came to 3.2. In addition, on FUS-GFP condensates, the “Co-localization of dye with GFP-labeled FUS in condensates” value is given as “co-localized in the condensates”.
For the compound `CCN(CC)c1ccc2c(-c3ccccc3C(=O)O)c3ccc(=[N+](CC)CC)cc-3oc2c1` [Dye 16, Rhodamine B], the “Ratio of compound concentration” value on FUS-SNAP condensates [1] is 666. At FUS-SNAP condensates [2], the “Ratio of intensity inside:outside FUS-SNAP Condensates Day 1” value came to 4.4, the “Ratio of intensity inside:outside FUS-SNAP Condensates Day 2” value is given as 3.8, the “Ratio of intensity inside:outside FUS-SNAP Condensates Average” value is given as 4.1 and the “Intensity Inside with Dye Average” value is 2041.4. Moreover, at FUS-SNAP condensates [2], the “Intensity Inside with Dye 1” value was 2154.5, the “Intensity Inside with Dye 2” value was 2074.7, the “Intensity Inside with Dye 3” value is given as 1895.0 and the “Intensity Inside Dye-No Dye” value was found to be 1941.7. In addition, at FUS-SNAP condensates [2], the “Intensity Outside with Dye Average” value is given as 540.2, the “Intensity Outside with Dye 1” value came to 546.8, the “Intensity Outside with Dye 2” value is 508.3 and the “Intensity Outside with Dye 3” value was 565.6. For the same compound, on FUS-SNAP condensates [2], the “Intensity Outside (Dye-No Dye)” value was found to be 440.3. Also, the “Ratio of FUS-SNAP:PGL-3” value in series [3] amounted to 3.0.
On to `O=C([O-])c1ccccc1C1=c2cc3c4c(c2Oc2c1cc1c5c2CCCN5CCC1)CCC[N+]=4CCC3` [Dye 17, Rhodamine 101 inner salt], for which, on FUS-SNAP condensates [1], the “Ratio of compound concentration” value is 1,500. Besides, on FUS-SNAP condensates [2], the “Ratio of intensity inside:outside FUS-SNAP Condensates Day 1” value is reported as 6.1, the “Ratio of intensity inside:outside FUS-SNAP Condensates Day 2” value is listed as 5.9, the “Ratio of intensity inside:outside FUS-SNAP Condensates Average” value is listed as 6.0 and the “Intensity Inside with Dye Average” value was 4956.7. Also, on FUS-SNAP condensates [2], the “Intensity Inside with Dye 1” value was 4695.6, the “Intensity Inside with Dye 2” value was determined as 5663.6, the “Intensity Inside with Dye 3” value is reported as 4511.0 and the “Intensity Inside Dye-No Dye” value was 4857.1. In addition, on FUS-SNAP condensates [2], the “Intensity Outside with Dye Average” value stood at 902.4, the “Intensity Outside with Dye 1” value is 808.3, the “Intensity Outside with Dye 2” value amounted to 1011.5 and the “Intensity Outside with Dye 3” value is recorded as 887.5. In addition, the “Intensity Outside (Dye-No Dye)” value on FUS-SNAP condensates [2] came to 802.5. In series [3], the “Ratio of FUS-SNAP:PGL-3” value worked out at 3.2.
Regarding `O=C1OC2(c3ccc(O)cc3Oc3cc(O)ccc32)c2ccccc21` [Dye 6, Fluorescein], the “Ratio of compound concentration” value on FUS-SNAP condensates [1] is 1. At FUS-SNAP condensates [2], the “Ratio of intensity inside:outside FUS-SNAP Condensates Day 1” value was determined as 1.7, the “Ratio of intensity inside:outside FUS-SNAP Condensates Day 2” value stood at 1.4, the “Ratio of intensity inside:outside FUS-SNAP Condensates Average” value is on record as 1.5 and the “Intensity Inside with Dye Average” value is on record as 6277.1. For the same compound, at FUS-SNAP condensates [2], the “Intensity Inside with Dye 1” value stood at 6328.8, the “Intensity Inside with Dye 2” value is 6300.8, the “Intensity Inside with Dye 3” value stood at 6201.7 and the “Intensity Inside Dye-No Dye” value is given as 6141.9. Also, on FUS-SNAP condensates [2], the “Intensity Outside with Dye Average” value is reported as 3784.7, the “Intensity Outside with Dye 1” value was 3771.1, the “Intensity Outside with Dye 2” value was 3840.2 and the “Intensity Outside with Dye 3” value amounted to 3742.7. The “Intensity Outside (Dye-No Dye)” value at FUS-SNAP condensates [2] is 3680.6. Besides, in series [3], the “Ratio of FUS-SNAP:PGL-3” value came to 1.5.
Turning to `COC(=O)c1ccccc1-c1c2ccc(=N)cc-2oc2cc(N)ccc12.Cl` [Dye 14, Rhodamine 123], on FUS-SNAP condensates [1], the “Ratio of compound concentration” value was found to be 1. In addition, on FUS-SNAP condensates [2], the “Ratio of intensity inside:outside FUS-SNAP Condensates Day 1” value is 1.3, the “Ratio of intensity inside:outside FUS-SNAP Condensates Day 2” value was found to be 1.4, the “Ratio of intensity inside:outside FUS-SNAP Condensates Average” value stood at 1.3 and the “Intensity Inside with Dye Average” value amounted to 2970.4. On FUS-SNAP condensates [2], the “Intensity Inside with Dye 1” value stood at 3123.1, the “Intensity Inside with Dye 2” value is given as 2956.9, the “Intensity Inside with Dye 3” value was 2831.2 and the “Intensity Inside Dye-No Dye” value is 2835.2. In addition, at FUS-SNAP condensates [2], the “Intensity Outside with Dye Average” value was 2277.6, the “Intensity Outside with Dye 1” value stood at 2174.8, the “Intensity Outside with Dye 2” value was 2322.7 and the “Intensity Outside with Dye 3” value is given as 2335.1. Further, at FUS-SNAP condensates [2], the “Intensity Outside (Dye-No Dye)” value is on record as 2173.5. In series [3], the “Ratio of FUS-SNAP:PGL-3” value was 1.2.

For the origin of these results see US12174198B2, “Methods of characterizing condensate-associated characteristics of compounds and uses thereof” (Dewpoint Therapeutics, Inc., priority 2019, dated 2024).
